Values joined by “and” are separate entries in the source; they are usually repeats but may differ in a detail not shown here. Equal entries are not always repeated. Inconclusive results and toxic doses are left out. Cut-off read from the data, not from the text of the source: active = T/C of 150% or more; inactive = T/C below 125%.
Test system: L1210 leukemia ip in BDF1 mice, survival T/C
Assay: NCI In Vivo Anticancer Drug Screen. Data for tumor model L1210 Leukemia (intraperitoneal) in B6D2F1 (BDF1) mice
Details: endpoint: mean survival time, higher = longer survival
Summary of the method: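 In this screen, tumor-bearing mice given compound are compared to those given vehicle, and their survival values are reported as a treated-to-control quotient.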

[1] = dose: 100.0 mg/kg/injection, schedule: Q01DX001 (ip), vehicle: Klucel (hydroxypropylcellulose) (HPC)
[2] = dose: 100.0 mg/kg/injection, schedule: Q01DX009 (ip), vehicle: Klucel (hydroxypropylcellulose) (HPC)
[3] = dose: 200.0 mg/kg/injection, schedule: Q01DX001 (ip), vehicle: Klucel (hydroxypropylcellulose) (HPC)
[4] = dose: 200.0 mg/kg/injection, schedule: Q01DX009 (ip), vehicle: Klucel (hydroxypropylcellulose) (HPC)
[5] = dose: 400.0 mg/kg/injection, schedule: Q01DX001 (ip), vehicle: Klucel (hydroxypropylcellulose) (HPC)
[6] = dose: 100.0 mg/kg/injection, schedule: Q01DX009 (ip), vehicle: saline

Measured: T/C

COc1ccc(OC2CCCCC2OS(C)(=O)=O)cc1 (stereo not given)
inactive: [1] 104 % of control | [2] 96 % of control | dose: 100.0 mg/kg/injection, schedule: Q04DX003 (ip), vehicle: Klucel (hydroxypropylcellulose) (HPC) 102 % of control | [3] 103 % of control | [4] 104 % of control | dose: 200.0 mg/kg/injection, schedule: Q04DX003 (ip), vehicle: Klucel (hydroxypropylcellulose) (HPC) 102 % of control | [5] 108 % of control | dose: 400.0 mg/kg/injection, schedule: Q01DX009 (ip), vehicle: Klucel (hydroxypropylcellulose) (HPC) 106 % of control | dose: 400.0 mg/kg/injection, schedule: Q04DX003 (ip), vehicle: Klucel (hydroxypropylcellulose) (HPC) 101 % of control

CC(C)(C)c1cc(/C=N/n2c(-c3ccccc3)nc3ccccc3c2=O)cc(C(C)(C)C)c1O
inactive: [1] 89 % of control | [2] 89 % of control and 91 % of control | dose: 100.0 mg/kg/injection, schedule: Q04DX002 (ip), vehicle: Klucel (hydroxypropylcellulose) (HPC) 95 % of control | [3] 89 % of control | [4] 95 % of control and 91 % of control | dose: 200.0 mg/kg/injection, schedule: Q04DX002 (ip), vehicle: Klucel (hydroxypropylcellulose) (HPC) 98 % of control | [5] 93 % of control | dose: 400.0 mg/kg/injection, schedule: Q04DX002 (ip), vehicle: Klucel (hydroxypropylcellulose) (HPC) 97 % of control and 100 % of control

O=C(c1ccccc1)N(c1ccccc1)c1cccc(Cl)n1
inactive: dose: 50.0 mg/kg/injection, schedule: Q01DX009 (ip), vehicle: saline with Tween-80 93 % of control | dose: 100.0 mg/kg/injection, schedule: Q01DX009 (ip), vehicle: saline with Tween-80 93 % of control | dose: 200.0 mg/kg/injection, schedule: Q01DX009 (ip), vehicle: saline with Tween-80 90 % of control

C#CC(C)(C)OCC(O)CCl (stereo not given)
inactive: [6] 96 % of control | dose: 100.0 mg/kg/injection, schedule: Q04DX003 (ip), vehicle: saline sonified 114 % of control | dose: 200.0 mg/kg/injection, schedule: Q01DX009 (ip), vehicle: saline 89 % of control | dose: 200.0 mg/kg/injection, schedule: Q04DX003 (ip), vehicle: saline sonified 109 % of control | dose: 400.0 mg/kg/injection, schedule: Q04DX003 (ip), vehicle: saline sonified 109 % of control

CCN1CC=CCC1
inactive: dose: 25.0 mg/kg/injection, schedule: Q04DX003 (ip), vehicle: saline 93 % of control | dose: 50.0 mg/kg/injection, schedule: Q01DX009 (ip), vehicle: saline 100 % of control | dose: 50.0 mg/kg/injection, schedule: Q04DX003 (ip), vehicle: saline 98 % of control | [6] 100 % of control | dose: 100.0 mg/kg/injection, schedule: Q04DX003 (ip), vehicle: saline 103 % of control and 91 % of control

Brc1cccc2c1C[n+]1ccccc1-2
inactive: dose: 75.0 mg/kg/injection, schedule: Q01DX001 (ip), vehicle: saline 96 % of control | dose: 150.0 mg/kg/injection, schedule: Q01DX001 (ip), vehicle: saline 92 % of control

O=C(O)C1CCCN1[N+](=O)[O-] (stereo not given)
inactive: dose: 100.0 mg/kg/injection, schedule: Q01DX001 (ip), vehicle: saline 100 % of control | dose: 200.0 mg/kg/injection, schedule: Q01DX001 (ip), vehicle: saline 104 % of control | dose: 400.0 mg/kg/injection, schedule: Q01DX001 (ip), vehicle: saline 110 % of control
